Values quoted from earlier work in patent publication US6794370B2, “Method for treating cancer using camptothecin derivatives and 5-fluorouracil” (priority 1999, dated 2004).
Read-outs that look alike come from different tables or passages of the source.

Assays:
colorectal cancer [1] = details: compared with supportive care only
[2] = tested on: metastatic colorectal cancer; details: 125 mg/m^2 intravenously
colorectal cancer [3] = details: metastatic disease, compared to no antitumour therapy
colorectal cancer [4] = tested on: colorectal cancer

Compound	quality of life (colorectal cancer [1])	survival (colorectal cancer [1])	median survival ([2]; first of two studies) [months]	response rate ([2]; first of two studies) [%]	median survival ([2]; second of two studies) [months]	response rate ([2]; second of two studies) [%]	survival time (colorectal cancer [3]) [months]	median survival time (colorectal cancer [4]; bolus administration) [months]	response rate (colorectal cancer [4]; bolus administration) [%]	median survival time (colorectal cancer [4]; infusional administration) [months]	response rate (colorectal cancer [4]; infusional administration) [%]
Irinotecan [CPT-11]	better quality of life	longer survival	12.1	32	11.8	26					
O=c1[nH]cc(F)c(=O)[nH]1 [5-FU, 5-fluorouracil]							11	11.3	14	12.1	22
